Experimental findings from patent EP0845266A2, “Sweet whey concentrate containing antioxidant compositions” (MK-Produktkontor GmbH, priority 1996, dated 1998) are described below.

The experiment has as its target T1, Myeloperoxidase (MPO) (Homo sapiens, UniProt P05164).
T1 sequence (P05164 49-745): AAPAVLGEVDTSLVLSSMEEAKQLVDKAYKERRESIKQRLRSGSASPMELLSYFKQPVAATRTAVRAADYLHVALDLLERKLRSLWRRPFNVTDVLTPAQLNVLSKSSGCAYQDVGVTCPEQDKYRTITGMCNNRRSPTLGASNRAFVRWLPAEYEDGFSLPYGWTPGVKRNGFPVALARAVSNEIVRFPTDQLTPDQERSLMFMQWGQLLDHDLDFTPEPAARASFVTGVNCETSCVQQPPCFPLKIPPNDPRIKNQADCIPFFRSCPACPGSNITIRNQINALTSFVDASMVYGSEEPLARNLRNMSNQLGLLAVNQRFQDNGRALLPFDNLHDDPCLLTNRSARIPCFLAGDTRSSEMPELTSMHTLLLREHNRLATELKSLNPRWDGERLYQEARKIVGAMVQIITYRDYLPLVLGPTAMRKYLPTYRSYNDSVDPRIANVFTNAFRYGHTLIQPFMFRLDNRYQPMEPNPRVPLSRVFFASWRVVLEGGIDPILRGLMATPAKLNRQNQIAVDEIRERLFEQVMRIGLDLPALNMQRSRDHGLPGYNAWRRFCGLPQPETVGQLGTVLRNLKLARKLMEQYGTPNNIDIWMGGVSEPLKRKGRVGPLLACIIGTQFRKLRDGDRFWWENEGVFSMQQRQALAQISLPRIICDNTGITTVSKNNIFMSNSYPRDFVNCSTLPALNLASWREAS
Nature of the experiment: Myeloperoxidase reaction: MPO-catalysed formation of HOCl, measured as ethylene release from ACC by gas chromatography. The format is biochemical. The settings on record: CAR, in mixtures SMK 3 mg im Ansatz, 30 min, 37 °C, pH 5,7, read-out: % Hemmung; for inhibition at 100 µM: 0,1 mM AN; for inhibition at 1000 µM: 1,0 mM AN. The source says:
Die Inhibitionswirkung wurde in einem In-vitro-Teststystem geprüft, das die oxidativen Prozesse während eine Entzündung simulieren soll.
Myeloperoxidase (MPO) wird von aktivierten Leukozyten während der Degranulation in das Phagosom und das umliegende Gewebe abgegeben. Das Enzym katalysiert die Bildung von HOCl aus H2O2 und Chlorid. Durch Messung der HOCl-Konzentration in dem Reaktionssystem kann das Ausmaß der Inhibition bestimmt werden. Hypochlorit (HOCl) spaltet spezifisch Aminocyclopropancarbonsäure (ACC), wobei Ethylen entsteht.
Dieses wiederum kann gaschromatographisch identifiziert werden.
Der Einfluß einer Mischung aus Süßmolkekonzentrat (SMK) und Anserin bzw. Carnosin sowie der einzelnen Komponenten in den in Tabelle 1 angegebenen Konzentrationen auf die MPO-katalysierte Bildung von HOCl wurde untersucht. Tabelle 1
Es wurde folgender Ansatz verwendet: 0,15 M NaCl, 25 µM H2O2, 0,1 E MPO, 0,1 M Phosphatpuffer mit einem pH-Wert von 5,7 und 1 mM ACC. Die Inkubationsdauer beträgt 30 Minuten bei 37 °C. Die Ethylen-Freisetzungsrate eines Ansatzes ohne Zugabe potentieller Inhibitorstoffe entspricht einer Grundrate von 100% (0% Hemmung).

Turning to `Cn1cncc1C[C@H](NC(=O)CCN)C(=O)O` [AN, Anserin], the inhibition at 100 µM stood at 23% and the inhibition at 1000 µM came to 84%.
As for `NCCC(=O)N[C@@H](Cc1cnc[nH]1)C(=O)O` [CAR, Carnosin], the inhibition at 100 µM was found to be 23% and the inhibition at 1000 µM was determined as 86%.
